Earlier results in patent EP0615447B1, “SLOW-RELEASE FLURBIPROFEN-CONTAINING MEDICAMENT AND ITS USE” (ALFATEC-PHARMA GmbH, priority 1991, dated 1993).

Key:
[1] = in vivo
[2] = water
[3] = aqueous medium; compared with the racemate

Row | SMILES | Plasmahalbwertszeit [1] | pKA | Löslichkeit in Wasser [2] | Auflösungsgeschwindigkeit [3]
1 | CC(C(=O)O)c1ccc(-c2ccccc2)c(F)c1 (racemic) [Flurbiprofen, 2-(2-Fluor-4-biphenylyl)propionsäure] | 3,9 h | 4,16 | 32,5 mg/l | 
2 | CC(C(=O)O)c1ccc(-c2ccccc2)c(F)c1 (racemic) [Pseudoracemat] |  |  |  | wesentlich höher
